Test results taken from article PMC10617569, “The Ustilago maydis AA10 LPMO is active on fungal cell wall chitin” (Applied and Environmental Microbiology, 2023).

Molecular target: T1, UmAA10_cd (Mycosarcoma maydis, UniProt A0A0D1CHL0)
T1 construct: gene UMAG_05439; catalytic domain only; C-terminal extension removed between Gly203 and Gly204; C-terminal (His)6-tag; made in Pichia pastoris SuperMan5; copper loaded
Experiment: Amplex red / HRP assay of H2O2 production, absorbance at […] nm
Format: biochemical
Conditions: reductant of the LPMO oxidase reaction, 50 µM ascorbic acid with O2; 1 µM enzyme; sodium phosphate 50 mM pH 7.0; 23°C

T1 sequence (A0A0D1CHL0 33-203): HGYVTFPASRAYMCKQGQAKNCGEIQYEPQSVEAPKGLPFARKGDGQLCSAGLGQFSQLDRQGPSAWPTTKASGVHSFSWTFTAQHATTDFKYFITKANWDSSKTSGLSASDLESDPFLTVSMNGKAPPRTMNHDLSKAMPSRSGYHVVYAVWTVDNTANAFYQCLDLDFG

O=C1O[C@H]([C@@H](O)CO)C(O)=C1O [ascorbic acid]
Amplex red / HRP assay of H2O2 production, absorbance at 575 nm: Using ascorbic acid (AscA) as a reductant, we found that UmAA10_cd produces H2O2
